EC (150% of control) and melting point data for 24 compounds are collected here from patent publication US9315502B2, “Imidazopyridine derivatives” (Hoffmann-La Roche Inc., priority 2012, dated 2016).

Structures are written as SMILES.

The test system of data set [1] is human embryonic stem cell derived neural stem cells (NSCs). The data set is described as follows: Neural Stem Cell Proliferation Assay (neurogenesis assay, ATP levels by CellTiterGlo). The format is cell-based. The following applies: 96 h, compound concentration at which 150% activity of control (100%) is reached, NSC proliferation, 4 days incubation. Here is the method: Neural Stem Cell Proliferation Assay
Neurogenic properties of small molecules are determined based on the proliferation of human embryonic stem cell derived neural stem cells (NSCs) which were derived via a dual smad inhibition as previously described (Chambers, S. M., et al., Highly efficient neural conversion of human ES and iPS cells by dual inhibition of SMAD signaling, Nature biotechnology, 2009. 27(3): p. 275-80.)
Compounds respond is measured by the increase in cells based on ATP levels
(Promega:CellTiterGlo®) after an incubation period of 4 days.
NSCs are thawed and expanded over 3 passages. On the 14th day, NSCs are seeded in Polyornithin/Laminin coated 384 well plates at a cell density of 21′000 cells/cm^2 in a media volume of 38 μl.
4 hours after cell seeding, compound solutions are added at a volume of 2 μl. Stock solutions of the compounds (water, 5% DMSO) are diluted to obtain a dose response (11 points, dilution factor is 2), ranging from 8 μM to 8 nM. Controls are run to consistently determine the neurogenic properties of the cells:
Negative (neutral) control is cell culture Media (final DMSO concentration: 0.25%). Positive controls are: • 1. cell culture Media+100 ng/ml FGF2 (final DMSO concentration: 0.1%) • 2. cell culture Media+20 ng/ml EGF (final DMSO concentration: 0.1%) • 3. cell culture Media+100 ng/ml Wnt3a (final DMSO concentration: 0.1%)
After 4 days incubation at 37° C., 5% CO2, the amount of ATP per well is quantified. The ATP concentration is proportional to the cell number. ATP is quantified by using the Promega CellTiterGlo® kit. The CellTiterGlo® reagents contain a cell lysis buffer, a thermo stable luciferase (UltraGlo™ recombinant luciferase), magnesium and luciferin. Luciferin reacts with ATP producing oxyluciferin, AMP and light. The luminescence signal is proportional to the ATP content.
The value of negative (neutral) control is determined for each assay plate by taking the average of 16 negative control wells. The neurogenic compound response is calculated for each compound as (compound/Negative Control)* 100.
The values of EC150 from the dose response curve are determined for each test compound. The EC150 is the compound concentration at which 150% activity of control (100%) is reached.

On to `Fc1ccc(-c2cnc3ccc(-c4ccnn4-c4ccc(F)cc4)cn23)cc1` [Example 1, 3-(4-Fluoro-phenyl)-6-[2-(4-fluoro-phenyl)-2H-pyrazol-3-yl]-imidazo[1,2-a]pyridine], for which the melting point (as a rule, the temperature of the solid-liquid transition) was found to be 172 °C. Further, in data set [1], the EC (150% of control) was found to be 0.019 µM.
In the same order, the values of `Clc1ccc(-c2cnc3ccc(-c4ccnn4-c4ccc(Cl)cc4)cn23)cc1` [Example 2, 3-(4-Chloro-phenyl)-6-[2-(4-chloro-phenyl)-2H-pyrazol-3-yl]-imidazo[1,2-a]pyridine] are 172.5 °C and 0.1 µM.
The corresponding values for `Fc1ccc(-c2cnc3ccc(-c4ccnn4-c4ccc(Cl)cc4)cn23)cc1` [Example 3, 6-[2-(4-Chloro-phenyl)-2H-pyrazol-3-yl]-3-(4-fluoro-phenyl)-imidazo[1,2-a]pyridine] are 147 °C and 0.096 µM.
The corresponding values for `Fc1ccc(-n2nccc2-c2ccc3ncc(-c4ccc(Cl)cc4)n3c2)cc1` [Example 4, 3-(4-Chloro-phenyl)-6-[2-(4-fluoro-phenyl)-2H-pyrazol-3-yl]-imidazo [1,2-a]pyridine] are 171 °C and 0.092 µM.
`Cc1ccc(-n2nccc2-c2ccc3ncc(-c4ccc(F)cc4)n3c2)cc1` [Example 5, 3-(4-Fluoro-phenyl)-6-(2-p-tolyl-2H-pyrazol-3-yl)-imidazo[1,2-a]pyridine]: the melting point was determined as 141 °C. In data set [1], this compound yielded an EC (150% of control) of 0.008 µM.
`Fc1ccc(-n2nccc2-c2ccc3ncc(-c4ccncc4)n3c2)cc1` [Example 6, 6-[2-(4-Fluoro-phenyl)-2H-pyrazol-3-yl]-3-pyridin-4-yl-imidazo [1,2-a]pyridine] registered a melting point of 201 °C. This compound also showed an EC (150% of control) in data set [1] of 0.026 µM.
As to `Clc1ccc(-n2nccc2-c2ccc3ncc(-c4ccncc4)n3c2)cc1` [Example 7, 6-[2-(4-Chloro-phenyl)-2H-pyrazol-3-yl]-3-pyridin-4-yl-imidazo[1,2-a]pyridine], the melting point was 186 °C. Further, the EC (150% of control) in data set [1] stood at 0.022 µM.
In the same order, the values of `c1ccc(-c2cnc3ccc(-c4ccnn4-c4ccccc4)cn23)cc1` [Example 8, 3-Phenyl-6-(2-phenyl-2H-pyrazol-3-yl)-imidazo[1,2-a]pyridine] are 139 °C and 0.019 µM.
In the same order, the values of `Fc1ccc(-n2nccc2-c2ccc3ncc(-c4ccc(Cl)cc4F)n3c2)cc1` [Example 9, 3-(4-Chloro-2-fluoro-phenyl)-6-[2-(4-fluoro-phenyl)-2H-pyrazol-3-yl]-imidazo[1,2-a]pyridine] are 187 °C and 0.055 µM.
In the same order, the values of `Cc1ccc(-n2nccc2-c2ccc3ncc(-c4ccccc4)n3c2)cc1` [Example 10, 3-Phenyl-6-(2-p-tolyl-2H-pyrazol-3-yl)-imidazo[1,2-a]pyridine] are 107 °C and 0.009 µM.
As for `Fc1cc(Cl)ccc1-c1cnc2ccc(-c3ccnn3-c3ccc(Cl)cc3)cn12` [Example 11, 3-(4-Chloro-2-fluoro-phenyl)-6-[2-(4-chloro-phenyl)-2H-pyrazol-3-yl]-imidazo[1,2-a]pyridine], the melting point stood at 148 °C. The EC (150% of control) in data set [1] is 0.089 µM.
The corresponding values for `COc1ccc(-c2cnc3ccc(-c4ccnn4-c4ccc(Cl)cc4)cn23)cc1` [Example 12, 6-[2-(4-Chloro-phenyl)-2H-pyrazol-3-yl]-3-(4-methoxy-phenyl)-imidazo [1,2-a]pyridine] are 142 °C and 0.045 µM.
`COc1ccc(-c2cnc3ccc(-c4ccnn4-c4ccc(F)cc4)cn23)cc1` [Example 13, 6-[2-(4-Fluoro-phenyl)-2H-pyrazol-3-yl]-3-(4-methoxy-phenyl)-imidazo [1,2-a]pyridine]: the melting point amounted to 162 °C. This compound yielded an EC (150% of control) in data set [1] of 0.024 µM.
As to `Fc1ccc(-n2nccc2-c2ccc3ncc(-c4ccc(F)cc4F)n3c2)cc1` [Example 14, 3-(2,4-Difluoro-phenyl)-6-[2-(4-fluoro-phenyl)-2H-pyrazol-3-yl]-imidazo[1,2-a]pyridine], the melting point was 168 °C. Also, in data set [1], the EC (150% of control) was determined as 0.053 µM.
The corresponding values for `Fc1ccc(-c2cnc3ccc(-c4ccnn4-c4ccc(Cl)cc4)cn23)c(F)c1` [Example 15, 6-[2-(4-Chloro-phenyl)-2H-pyrazol-3-yl]-3-(2,4-difluoro-phenyl)-imidazo[1,2-a]pyridine] are 152 °C and 0.029 µM.
The corresponding values for `Fc1ccc(-c2cnc3ccc(-c4cncn4-c4ccc(F)cc4)cn23)cc1` [Example 16, 3-(4-Fluoro-phenyl)-6-[3-(4-fluoro-phenyl)-3H-imidazol-4-yl]-imidazol[1,2-a]pyridine] are 206 °C and 0.053 µM.
The corresponding values for `FC(F)(F)c1ccc(-c2cnc3ccc(-c4ccnn4-c4ccc(Cl)cc4)cn23)cc1` [Example 17, 6-[2-(4-Chloro-phenyl)-2H-pyrazol-3-yl]-3-(4-trifluoromethyl-phenyl)-imidazo[1,2-a]pyridine] are 167 °C and 0.38 µM.
For the compound `Fc1ccc(-n2nccc2-c2ccc3ncc(-c4ccc(C(F)(F)F)cc4)n3c2)cc1` [Example 18, 6-[2-(4-Fluoro-phenyl)-2H-pyrazol-3-yl]-3-(4-trifluoromethyl-phenyl)-imidazo[1,2-a]pyridine], the melting point came out at 172 °C. The EC (150% of control) in data set [1] turned out to be 0.18 µM.
The corresponding values for `N#Cc1ccc(-c2cnc3ccc(-c4ccnn4-c4ccc(F)cc4)cn23)cc1` [Example 19, 4-{6-[2-(4-Fluoro-phenyl)-2H-pyrazol-3-yl]-imidazo [1,2-a]pyridin-3-yl}-benzonitrile] are 215 °C and 0.03 µM.
In the same order, the values of `N#Cc1ccc(-c2cnc3ccc(-c4ccnn4-c4ccc(Cl)cc4)cn23)cc1` [Example 20, 4-{6-[2-(4-Chloro-phenyl)-2H-pyrazol-3-yl]-imidazo[1,2-a]pyridin-3-yl}-benzonitrile] are 208 °C and 0.04 µM.
`CS(=O)(=O)c1ccc(-c2cnc3ccc(-c4ccnn4-c4ccc(Cl)cc4)cn23)cc1` [Example 21, 6-[2-(4-Chloro-phenyl)-2H-pyrazol-3-yl]-3-(4-methanesulfonyl-phenyl)-imidazo[1,2-a]pyridine]: the melting point came to 259 °C. The same compound yielded an EC (150% of control) in data set [1] of 0.25 µM.
The corresponding values for `CS(=O)(=O)c1ccc(-c2cnc3ccc(-c4ccnn4-c4ccc(F)cc4)cn23)cc1` [Example 22, 6-[2-(4-Fluoro-phenyl)-2H-pyrazol-3-yl]-3-(4-methanesulfonyl-phenyl)-imidazo[1,2-a]pyridine] are 226 °C and 0.24 µM.
In the same order, the values of `Fc1ccc(-c2cnc3ccc(-c4ccnn4-c4ccc(C(F)(F)F)cc4)cn23)cc1` [Example 23, 3-(4-Fluoro-phenyl)-6-[2-(4-trifluoromethyl-phenyl)-2H-pyrazol-3-yl]-imidazo[1,2-a]pyridine] are 147 °C and 0.79 µM.
In turn, `N#Cc1ccc(-c2cnc3ccc(-c4ccnn4-c4ccc(C(F)(F)F)cc4)cn23)cc1` [Example 24, 4-{6-[2-(4-Trifluoromethyl-phenyl)-2H-pyrazol-3-yl]-imidazo [1,2-a]pyridin-3-yl}-benzonitrile] had a melting point of 201 °C. For the same compound, in data set [1], the EC (150% of control) is 2.6 µM.
